Experimental data taken from patent US9494867B2, “Rinsing liquid for lithography and pattern forming method using same” (AZ ELECTRONIC MATERIALS (LUXEMBOURG) S.A.R.L., priority 2013, dated 2016).

Assays:
Format in all cases: physicochemical
[1] = Measurement of maximum dissolution quantity in water; details: water of 25° C.
Experimental: Different amounts of an additive agent for a rinse solution are added between transparent screws and in each cases water is further added as the total amount of the additive agent and water is made 100 g. These are mixed at 25° C. for 10 hours or more by using a stealer and left at rest for some time at this temperature. The state of dissolution thereof is observed by eyes and the maximum amount of the additive agent wherein insoluble matter is not observed in the solution is defined as a maximum dissolution quantity (ppm).

[2] = Storage stability test of rinse solution; set-up: key: when the defect number of the test rinse solution is equal to or less than that of the rinse solution of the deionized water, it is evaluated as ‘O’; when the number is more than that of the deionized water, it is evaluated as ‘X’; details: additive concentrations more than 3,000 ppm
Experimental: A rinse solution prepared in a predetermined concentration is filtered through a filter and left at rest at 25° C. for one month. A chemically amplified KrF resist composition AZ DX6270P manufactured by AZ Electronic Materials Manufacturing (Japan) K. K. is spin-coated on a silicon wafer and soft-baked at 120° C. for 90 seconds to form a resist film of 620 nm in thickness. The rinse solution after preservation is applied on the resist film and the wafer is rotated at a very high speed to dry it. The total defect numbers of all defects including gel defects and particle defects on this film are measured using a defect inspection apparatus KLA2360 manufactured by KLA Tencor corporation. The number of defects when the preserved test rinse solution is used as a rinse solution is compared with that when the preserved rinse solution consisting of only a deionized water is used (see Comparative example 1) and when the defect number of the test rinse solution is equal to or less than that of the rinse solution of the deionized water, it is evaluated as ‘O’ and when the number is more than that of the deionized water, it is evaluated as ‘X’.

[3] = Measurement of surface tension of rinse solution; details: rinse solution containing 1,000 ppm of the additive
Experimental: A surface tension measurement of a prepared rinse solution was conducted using the surface tensiometer CBVP-Z manufactured by Kyowa interface science Co., LTD.

SMILES | Maximum dissolution quantity of additives in water [1] | Storage stabilities [2] | Surface tension of the rinse solution [3] [mN/m]
OCc1ccccc1CO [OXG, 1,2-benzendimethanol] | >10,000 ppm |  | 
OCc1ccc(CO)cc1 [PXG, p-xylylene glycol] | >10,000 ppm |  | 
CCOC(O)C#CC(O)OCC (stereo not shown) [DODD, 3,8-dioxa-5-decyne-4,7-diol, reference compound] | >10,000 ppm | X | 
OCc1cccc(CO)c1 [MXG, 1,3-benzendimethanol] | >10,000 ppm |  | 
CCC(C)(O)C#CC(C)(O)CC (stereo not shown) [DMOD, 3,6-dimethyl-4-octyn-3,6-diol] | >10,000 ppm |  | 
CC(C)(O)C#CC(C)(C)O [DMHD, 2,5-dimethyl-3-hexyne-2,5-diol] | >10,000 ppm |  | 
OCCCCO [1,4-butanediol, reference compound] | >10,000 ppm |  | 
OCC1CCC(CO)CC1 (stereo not shown) [CHDM, 1,4-cyclohexanedimethanol, reference compound] | >10,000 ppm |  | 
OCC#CC#CCO [HXDD, 2,4-hexadiyn-1,6-diol] | >10,000 ppm |  | 
OCC#CCO [BTD, 1,4-butynediol] | >10,000 ppm |  | 
CC(O)C=CC(C)O (stereo not shown) [HXED, 3-hexene-2,5-diol] |  |  | 66.5
CC(O)C#CC(C)O (stereo not shown) [HXYD, 3-hexyne-2,5-diol] | >10,000 ppm |  | 
